In patent publication US10370327B2, “Ionic liquid films with multiple functionalities for surface modification of biomedical alloys” (BOARD OF REGENTS, THE UNIVERSITY OF TEXAS SYSTEM, priority 2014, dated 2019):
Where two headings read alike, the source gives them in different places. Values belong to the molecule of their own block, whether it stands above or below them.

Tests used:
MC3T3-E1 cell line [1] = assay: MTT cytotoxicity assay, dose-response in MC3T3-E1 cells; format: cell-based; conditions: read-out: Toxicity IC50
From the text: Without wishing to be bound by any theory, it is believed that the ionic liquids (ILs) structures prevent the hydrophobic effects of the imidazolium cation and thus cellular uptake by the introduction of a second cationic head. These structures, which are formed by two imidazolium rings linked by an alkyl chain and anionic counterpart, may result in non-toxic compounds because the dicationic structure will not be able to penetrate and alter the physical properties of the lipid bilayer. The ionic liquids were synthesized and performed preliminary studies with the dicationic imidazolium-based IL compounds as described above, and the IC50 values were assessed through MTT assay (Gindri et al., 2014).
The ionic liquids were synthesized and performed preliminary studies with the dicationic imidazolium-based IL compounds as described above, and the IC50 values were assessed through MTT assay (Egorova et al., 2014). The toxicity of ionic liquids was accessed using MC3T3-E1 cell lines. The cells were plated in 6-well plates and after 24 h, cells were treated with media containing a range of concentrations of ionic liquids. All concentrations tested for generation of dose-response curves. A non-linear regression sigmoidal dose-response curve was fitted to each set of values to allow the calculation of IC50 values.

[2] = Thermal analysis of pure ionic liquid and equimolar mixture with TiO2 nanoparticles; format: physicochemical
Experimental: In order to evaluate the affinity of ionic liquids with the titanium surface, experiments were conducted with imidazole derived ionic liquids having as contra-ion the anions Br^−, BF4^− and NTf2^−. In the study, TiO2 nanoparticles were used instead of bulk titanium in order to allow for a better understanding of the interaction of the selected ionic liquids with the Ti oxide film (TiO2). Thermal behavior of TiO2 pure (nanoparticles), ionic liquid pure and the equimolar mixture of TiO2 and the different ionic liquids attempted were evaluated. […] Based upon the loss of a glass transition and the introduction of a new melting point for the TiO2 nanoparticle and the [DBMIM]2[NTf2], without wishing to be bound by any theory, it is believed that a more organized structural arrangement is formed (Grindri, et al., 2014).

[3] = DLS of TiO2 particles and equimolar TiO2 + ionic liquid; format: physicochemical; conditions: for Rh1 hydrodynamic radius: IL + TiO2, relaxation mode 1; for Rh2 hydrodynamic radius: IL + TiO2, relaxation mode 2; for Thickness of IL film on TiO2 particles: difference IL + TiO2 minus TiO2
Experimental: To evaluate the morphologic characteristics of new structures formed by TiO2+ionic liquid both DLS and SEM techniques were used. […] DLS experiments were performed with TiO2 particles only, and with solutions of equimolar amounts of TiO2+ionic liquid. The hydrodynamic radius (Rh) of pure TiO2 particles and mixture of TiO2+ionic liquid was monitored and compared in order to analyze the formation of new organized phases related to ionic liquid film adhesion on TiO2 particles. […] The value from the difference between the size of TiO2+ionic liquid and TiO2 was used to calculate ionic liquid film thickness formed on TiO2 particles.
Comparing the data between pure TiO2 and the mixtures of [DBMIM]2[Br], [DBMIM]2[BF4] and [DBMIM]2[NTf2], it can be observed that in the first relaxation mode (Rh1) a small difference was detected between the size of the particles, which can be related with the single TiO2 nanoparticles, [DBMIM]2[Br], [DBMIM]2[BF4] and [DBMIM]2[NTf2] dispersed in solution. However, in the second relaxation mode a significant difference was noted between the size of pure TiO2 nanoparticles and TiO2+ionic liquid (Table 6). It was observed that Rh2 tended to increase with ionic liquid presence, which thus indicates film formation on the particles surface. Another interesting characteristic from the DLS results is that film thickness increased with hydrophobicity of anions (FIG. 1), which is in agreement with the trend reported by Ulbricht and Wittmar, 2012.

S. mutans = S. mutans planktonic and biofilm CFU on IL-coated Ti in artificial saliva/BHI; format: cell-based, Streptococcus mutans
Experimental: To determine if ILs retain antimicrobial activity when applied to Ti, preliminary experiments with two ILs (IL9 and IL12) and S. mutans, an early colonizer. Control Ti, IL9-coated Ti, and IL12-coated Ti were immersed in artificial saliva/brain heart infusion (BHI) medium containing S. mutans for 24 h and 72 h. After this period, planktonic bacterial cells in the fluid medium in which disks were immersed, and biofilm cells, adhered to the disk surface, were quantified by serial dilution and plating.

MC3T3-E1 cell line [4] = conditions: monocationic analogue of IL1, comparison value; read-out: IC50 of monocationic IL; cited from earlier work
[5] = test system: osteoblast-like cells (MC3T3-E1); assay: Cell proliferation (MTT) on IL-coated Ti, osteoblast-like cells; format: cell-based; conditions: MC3T3-E1, 1 and 7 days
[6] = test system: osteoblast-like cells (MC3T3-E1); assay: Alkaline phosphatase activity / osteoblast differentiation on IL-coated Ti; format: cell-based; conditions: day 1 and day 7
From the text: FIGS. 6A-6F show osteoblast identification through alkaline phosphatase assay. Ti Control on day 1 (FIG. 6A) and day 7 (FIG. 6D) along with IL9 coated Ti shown on day 1 (FIG. 6B) and day 7 (FIG. 6E) are shown. […] Cell differentiation was observed after 7 days on Ti control and IL9 coated Ti in which osteoblast are distinguished from stem cells by the purple color of the stain as indicated by the black arrows. […] As such, these compounds can be considered to be non-toxic to cells while still maintaining anti-microbial properties.
Experiments were performed in which Ti control disks, IL9-coated Ti, and IL12-coated Ti were exposed to gingival epithelial (HGF-1) and osteoblast-like cells (MC3T3-E1) during periods of 1 and 7 days. It was observed that after 1 day both Ti control and IL-coated Ti were covered with a layer of osteoblast-like cells (FIGS. 6A & 6B) illustrating the initial cell attachment on the surface. […] In vitro and in vivo osteoblast cell differentiation can be characterized during a phase denominated matrix maturation. During this period, a high expression of alkaline phosphatase (AP) is observed and can be used as an early differentiation marker to evaluate the differentiation of stem cells into osteoblasts (Shang et al., 2014 and Wang et al., 2012). […]

[7] = test system: gingival epithelial (HGF-1); assay: Cell proliferation (MTT) on IL-coated Ti, gingival epithelial cells; format: cell-based; conditions: HGF-1, 1 and 7 days

Molecule: 1,8-Bis(3-methylimidazolium-1-yl)octane dimethionine [IL-6]
- IC50 (MC3T3-E1 cell line [1]): 24.2 ± 10.3 mM

Molecule: C[n+]1ccn(CCCCCCCCCCn2cc[n+](C)c2)c1.[Br-].[Br-] [IL-7, 1,10-Bis(3-methylimidazolium-1-yl)decane dibromide]
- melting point: 130.77 °C
- IC50 (MC3T3-E1 cell line [1]; Mus musculus): 12.3 ± 0.1 mM

Molecule: 1,8-Bis(3-methylimidazolium-1-yl)octane diphenylalanine [IL-3]
- IC50 (MC3T3-E1 cell line [1]): 8.3 ± 3 mM

Molecule: 1,8-bis(3-methylimidazolium-1-yl)octane bis (trifluoromethane) sulfonimide [IL-14]
- Td1 first decomposition temperature ([2]; IL + TiO2 equimolar mixture): 463 °C
- Td1 first decomposition temperature ([2]; pure ionic liquid): 473 °C
- Rh1 hydrodynamic radius [3]: 1.6 nm
- Rh2 hydrodynamic radius [3]: 894.6 nm
- Thickness of IL film on TiO2 particles ([3]; relaxation mode 1): 0.9 nm
- Thickness of IL film on TiO2 particles ([3]; relaxation mode 2): 591.1 nm

Molecule: 1,8-Bis(3-methylimidazolium-1-yl)octane dihistidine [IL-5]
- IC50 (MC3T3-E1 cell line [1]): 25.7 ± 8.7 mM

Molecule: C[n+]1ccn(CCCCCCCCCCn2cc[n+](C)c2)c1.N[C@@H](Cc1c[nH]cn1)C(=O)O.N[C@@H](Cc1c[nH]cn1)C(=O)O [IL-11, 1,10-Bis(3-methylimidazolium-1-yl)decane dihistidine]
- IC50 (MC3T3-E1 cell line [1]): 12.9 ± 1.1 mM

Molecule: CSCC[C@H](N)C(=O)O.CSCC[C@H](N)C(=O)O.C[n+]1ccn(CCCCCCCCCCn2cc[n+](C)c2)c1 [IL-12, 1,10-Bis(3-methylimidazolium-1-yl)decane dimethionine]
- IC50 (MC3T3-E1 cell line [1]): 13.9 ± 2.7 mM
- Antimicrobial activity of coated Ti against S. mutans (S. mutans; 24 h and 72 h immersion): did not show significant antimicrobial activity

Molecule: 1,8-Bis(3-methylimidazolium-1-yl)octane diascorbate [IL-2]
- IC50 (MC3T3-E1 cell line [1]): 3.6 ± 0.6 mM

Molecule: 1,8-Bis(3-methylimidazolium-1-yl)octane dileucine [IL-4]
- IC50 (MC3T3-E1 cell line [1]): 12.5 ± 0.2 mM

Molecule: C[n+]1ccn(CCCCCCCCCCn2cc[n+](C)c2)c1 [IL-8, 1,10-Bis(3-methylimidazolium-1-yl)decane diascorbate]
- IC50 (MC3T3-E1 cell line [1]): 3.1 ± 1.2 mM

Molecule: CCCCCCCCn1cc[n+](C)c1 [[C8mim][Br]]
- IC50 (MC3T3-E1 cell line [4]): 1.51 ± 0.2 mM

- Td2 second decomposition temperature ([2]; IL + TiO2 equimolar mixture): 455.8 °C
- Td2 second decomposition temperature ([2]; pure ionic liquid): 455.8 °C
- Rh1 hydrodynamic radius [3]: 0.7 nm
- Rh2 hydrodynamic radius [3]: 513.0 nm
- Thickness of IL film on TiO2 particles ([3]; relaxation mode 1): 0.1 nm
- Thickness of IL film on TiO2 particles ([3]; relaxation mode 2): 209.5 nm
Molecule: C[n+]1ccn(CCCCCCCCn2cc[n+](C)c2)c1.F[B-](F)(F)F.F[B-](F)(F)F [IL-13, 1,8-bis(3-methylimidazolium-1-yl) octane tetrafluorborate]
- Td1 first decomposition temperature ([2]; IL + TiO2 equimolar mixture): 343.8 °C
- Td1 first decomposition temperature ([2]; pure ionic liquid): 346.8 °C

Molecule: C[n+]1ccn(CCCCCCCCCCn2cc[n+](C)c2)c1.NC(Cc1ccccc1)C(=O)[O-].NC(Cc1ccccc1)C(=O)[O-] [IL-9, 1,10-Bis(3-methylimidazolium-1-yl)decane diphenylalanine]
- Cell proliferation versus Ti control [5]: did not show significant differences
- ALP activity / cell differentiation versus Ti control [6]: without statistically significant differences
- IC50 (MC3T3-E1 cell line [1]): 8.5 ± 1.5 mM
- Anti-S. mutans activity of coated surface (S. mutans; 72 h trial): retain significant anti-S. mutans activity
- S. mutans recovered from coated Ti surfaces (S. mutans; biofilm cells after 24 h, control Ti ~10^6 CFU): ~10^2 CFU
- Cell proliferation versus Ti control [7]: did not show significant differences

Molecule: CC(C)C[C@H](N)C(=O)O.CC(C)C[C@H](N)C(=O)O.C[n+]1ccn(CCCCCCCCCCn2cc[n+](C)c2)c1 [IL-10, 1,10-Bis(3-methylimidazolium-1-yl)decane dileucine]
- IC50 (MC3T3-E1 cell line [1]): 12.3 ± 0.5 mM

- Td2 second decomposition temperature ([2]; IL + TiO2 equimolar mixture): 372.9 °C
- Rh1 hydrodynamic radius [3]: 0.8 nm
- Rh2 hydrodynamic radius [3]: 421.9 nm
- Thickness of IL film on TiO2 particles ([3]; relaxation mode 1): 0.2 nm
- Thickness of IL film on TiO2 particles ([3]; relaxation mode 2): 118.4 nm
Molecule: C[n+]1ccn(CCCCCCCCn2cc[n+](C)c2)c1.[Br-].[Br-] [IL-1, 1,8-bis(3-methylimidazolium-1-yl) octane bromide]
- IC50 (MC3T3-E1 cell line [1]; Mus musculus): 24.6 ± 3.5 mM
- Td1 first decomposition temperature ([2]; IL + TiO2 equimolar mixture): 310.0 °C
- Td1 first decomposition temperature ([2]; pure ionic liquid): 307.5 °C
